What all share (experiment): NCI anticancer screen, dose series, 48 h
Assay [1] relates to COLO 205 colon.
For assay [2], the system named is HCC-2998 colon.
Assay [3] concerns K-562 leukemia.
Assay [4] relates to NCI-H522 lung.
Assay [5] deals with SF-539 CNS.
The subject of assay [6] is SK-MEL-2 melanoma.
In assay [7] the test system is SN12C renal.
In assay [8] the test system is SNB-19 CNS.
The subject of assay [9] is SNB-75 CNS.
Assay [10] relates to T-47D breast.

Molecules are shown by their SMILES. “And” between values parts separate entries of the source, which are not always exact repeats. Equal values may be shown once.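 Growth conditions: 96-well plates. Treatment: test compound, 48 hours, 5 concentrations. Analysis: linear interpolation between bracketing concentrations; unreached endpoints set to highest concentration. Abbreviation: GI50, concentration required for 50% inhibition of growth. TGI is the concentration that stops growth completely.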

On to `O=S(=O)(O)c1ccc(Cl)cc1.[Cd]`, for which the GI50 in assay [1] was > 100 µM; in [2] it was > 100 µM; in [3], 37.5 µM; in assay [4] it was 1.99 µM; in assay [5] it was 13.7 µM; in assay [6], 19.2 µM. The GI50 in [7] was > 100 µM; in assay [8], > 100 µM; in assay [9], 37.7 µM; in [10] it was 27 µM. Further, the TGI was > 100 µM in assay [1]; > 100 µM in assay [2]; > 100 µM in assay [3]; 6.79 µM in assay [4]; 32.4 µM in assay [5]; 40.4 µM in assay [6]. For the same compound, the TGI in [7] was > 100 µM; in assay [8], > 100 µM; in [9], 97.2 µM; in [10], 53.8 µM.

On to `COc1ccc(-c2cc(-c3ccc(O)cc3)nc3nc(=S)[nH]c(N)c23)cc1`, for which the GI50 is 17 µM in assay [1]; 16.2 µM in assay [2]; 16.9 µM in assay [3]; 8.5 µM in assay [4]; 2.46 µM in [5]; 18.4 µM in assay [6]. The GI50 is 18.5 µM in assay [7], 26.7 µM in [8], 26.2 µM in assay [9] and 14.3 µM in [10]. The TGI in assay [1] is 50.1 µM; in assay [2], 31.9 µM; in assay [3], > 100 µM; in assay [4], 27.8 µM; in assay [5], 17.1 µM; in [6], 41.2 µM. Further, the TGI in assay [7] is 45.1 µM; in assay [8] it was > 100 µM; in assay [9], > 100 µM; in assay [10], 80.1 µM.

As for `Fc1ccc(-c2ncn(C3CCNCC3)c2-c2ccnc(Oc3ccccc3)n2)cc1`, the GI50 in assay [1] is 7.32 µM; in assay [2], 12.8 µM; in assay [3], 10.8 µM; in assay [4] it was > 25 µM; in [5], > 25 µM; in [6] it was > 25 µM. Further, the GI50 was 18.5 µM in assay [7], > 25 µM in [8], > 19.3 µM in assay [9] and 17.3 µM in assay [10]. Besides, the TGI in assay [1] is 18.6 µM; in [2], > 25 µM; in assay [3], > 25 µM; in assay [4] it was > 25 µM; in assay [5] it was > 25 µM; in assay [6], > 25 µM. Also, the TGI in [7], in [8], in [9] and in [10] was > 25 µM in each case.

Regarding `Cn1cc(C2=C(c3c4n(c5ccccc35)CC(CN)C4)C(=O)NC2=O)c2ccccc21` (centres undefined), the GI50 in assay [1] is 2.59 µM; in [2], 4.01 µM; in assay [3], 1.64 µM; in assay [4], 3 µM; in assay [5], 2.99 µM; in [6], 1.69 µM. The GI50 in assay [7] was 3.4 µM; in [8], 5.39 µM; in assay [9] it was 0.246 µM; in [10], 5.26 µM. Moreover, the TGI was determined as 6.05 µM in assay [1]; 8.02 µM in [2]; 17.9 µM in [3]; 6.63 µM in assay [4]; 6.24 µM in assay [5]; 5.35 µM in [6]. Further, the TGI in assay [7] amounted to 11 µM; in assay [8] it was 15.3 µM; in assay [9], 2.93 µM; in [10], 13.5 µM.

For the compound `O=C(CSc1nc2ccc([N+](=O)[O-])cc2[nH]1)Nc1cccc(Cl)c1`, the GI50 in assay [1] is 1.92 µM; in assay [2] it was 3.17 µM; in assay [3], 2.74 µM; in assay [4], 1.87 µM; in assay [5], 3.02 µM; in [6], 2 µM. For the same compound, the GI50 is 2.46 µM in assay [7], 2.92 µM in [8], 1.85 µM in assay [9] and 1.55 µM in assay [10]. Moreover, the TGI in assay [1] is 4.27 µM; in [2] it was 13.6 µM; in assay [3] it was > 100 µM; in [4], 8.9 µM; in assay [5], 11.7 µM; in assay [6], 5.82 µM. The TGI in assay [7] was 10.8 µM; in assay [8] it was 15.9 µM; in assay [9], 7.81 µM; in assay [10], 18.9 µM.

With `COc1ccc(S(=O)(=O)N2CCN(C(=O)OCc3ccccc3)CC2C(=O)NO)cc1` (centres undefined), the GI50 was > 25 µM in assay [1]; > 25 µM in assay [2]; 13.6 µM in assay [3]; 5.16 µM in assay [4]; > 25 µM in assay [5]; > 25 µM in assay [6]. The GI50 is > 25 µM in [7], > 25 µM in assay [8], > 25 µM in assay [9] and 12.1 µM in assay [10]. Besides, the TGI in assay [1], in [2], in assay [3], in assay [4], in assay [5] and in [6] was > 25 µM each time. Also, the TGI in assay [7], in assay [8], in assay [9] and in [10] was > 25 µM throughout.

In the case of `CS(=O)(=O)N1CCN(Cc2cc3nc(-c4cccc5[nH]ncc45)nc(N4CCOCC4)c3s2)CC1`, the GI50 in assay [1] was 0.499 µM and 0.163 µM; in assay [2] it was 0.614 µM and 0.153 µM; in assay [3], 3.91 µM and > 2.17 µM; in assay [4] it was 0.602 µM and 0.37 µM; in assay [5], 0.444 µM and 0.268 µM; in [6] it was 1.27 µM and 0.325 µM. The GI50 was 0.493 µM and 0.224 µM in assay [7]; 2.91 µM and 0.896 µM in assay [8]; 0.0918 µM and 0.0301 µM in [9]; 0.0668 µM and 0.035 µM in assay [10]. The TGI was > 100 µM in assay [1]; > 100 µM in assay [2]; > 100 µM in assay [3]; > 28 µM in assay [4]; > 100 µM in [6]; > 100 µM in assay [7]. The TGI is > 100 µM in [8]; 3.28 µM and 0.495 µM in [9]; 0.505 µM in assay [10].

The values are drawn from PubChem BioAssay (NCI).
